{"source": "paper PMC6207715", "about": "“Determination of extended substrate specificity of the MALT1 as a strategy for the design of potent substrates and activity-based probes” (Scientific Reports, 2018)", "format_in_all_cases": "biochemical", "key": {"MALT1 [1]": {"molecular_target": "T1, MALT1 (Homo sapiens, UniProt Q9UDY8)", "T1 sequence (Q9UDY8 1-824)": "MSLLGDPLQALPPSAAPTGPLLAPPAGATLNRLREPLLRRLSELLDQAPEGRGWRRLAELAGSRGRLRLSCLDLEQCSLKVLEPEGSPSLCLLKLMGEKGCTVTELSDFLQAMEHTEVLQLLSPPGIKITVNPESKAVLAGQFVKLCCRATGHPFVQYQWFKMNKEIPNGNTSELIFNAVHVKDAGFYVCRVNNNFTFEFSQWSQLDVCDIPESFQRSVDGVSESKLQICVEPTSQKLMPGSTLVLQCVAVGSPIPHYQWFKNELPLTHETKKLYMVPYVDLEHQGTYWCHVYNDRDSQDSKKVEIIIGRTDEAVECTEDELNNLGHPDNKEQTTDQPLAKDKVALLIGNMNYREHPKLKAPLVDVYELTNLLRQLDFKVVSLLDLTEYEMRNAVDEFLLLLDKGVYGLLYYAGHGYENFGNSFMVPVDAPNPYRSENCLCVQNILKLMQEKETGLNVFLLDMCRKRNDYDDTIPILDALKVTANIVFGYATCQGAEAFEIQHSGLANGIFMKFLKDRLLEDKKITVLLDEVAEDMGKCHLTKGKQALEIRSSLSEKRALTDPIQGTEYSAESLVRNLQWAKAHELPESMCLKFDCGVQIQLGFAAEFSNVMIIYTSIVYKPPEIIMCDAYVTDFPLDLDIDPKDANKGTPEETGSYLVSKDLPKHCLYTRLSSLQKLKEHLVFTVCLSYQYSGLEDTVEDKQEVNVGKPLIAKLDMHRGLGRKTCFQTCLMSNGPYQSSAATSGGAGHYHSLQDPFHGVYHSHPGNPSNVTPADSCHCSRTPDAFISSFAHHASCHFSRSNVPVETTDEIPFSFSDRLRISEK", "assay": "Kinetic assay of ACC fluorogenic substrates (kcat, Km, kcat/Km)", "details": "37 °C; 50 mM HEPES, 100 mM NaCl, 0.9 M sodium citrate, 10 mM DTT, pH 7.5; substrate 3.90-150 μM; ACC fluorescence 355/460 nm; average of three measurements", "procedure": "Figure 2 MALT1 substrate activity. Panel a. kcat/Km values for MALT1 substrates compared with that of the reference substrate (ALVSR). MALT1 was incubated at 37 °C for 30 minutes and added to the wells containing the substrate at varying concentrations. Relative fluorescence units were measured over time at excitation/emission wavelengths of 355/460 nm for at least 10 minutes. The data represent averages of three separate measurements, and error bars represent standard deviations. Panel b. Structure of our best (lower panel) and the reference (upper panel) MALT1 fluorogenic substrate.\n(§1) All kinetic assays were performed with a Spectra Max Gemini XPS spectrofluorimeter (Molecular Devices) and 96-well Corning plates. The measurement characteristics were as follows: 37 °C, excitation/emission wavelength of 355/460 nm, cutoff of 455 nm, and varying concentrations of substrates and enzyme. The assay buffer was prepared at 23 °C and contained 50 mM HEPES (2-[4-(2-hydroxyethyl)piperazin-1-yl]ethanesulfonic acid), 100 mM NaCl, 0.9 M sodium citrate and 10 mM dithiothreitol (DTT) (pH 7.5). MALT1^FL or MALT1^CD were preincubated for 30 minutes at 37 °C before being added to wells containing substrate. Next, the increase in fluorescence was recorded over the time. Only the linear portions of the curves were used for calculations. The kcat and Km values were calculated using GraphPad Prism and Microsoft Excel software. All measurements were repeated three times, and the data presented are averages of these replicates. […]\nwas carried out after each coupling and Fmoc deprotection step. The N terminus was protected with an acetyl group using 5 eq AcOH, 5 eq HBTU, and 5 eq DIPEA in DMF.\nAfter solvent removal, the resin was washed six times with DMF in order to remove excess reagents, three times with DCM, and three times with MeOH and then dried over P2O5 and cleaved from the resin with a TFA/TIPS/H2O mixture (%, v/v/v, 95:2.5:2.5).\nThe crude product was purified by HPLC and lyophilized. The purity of each substrate was confirmed by analytical HPLC, and each substrate was analyzed using HRMS.\n(§2) Substrates were dissolved in peptide-grade DMSO to a concentration of 20 mM and stored at -80°C until use.\n(§3) Calculation of kcat, Km and kcat/Km values\n(§4) Kinetic parameters were calculated under the same conditions as the library with slight modification. The total reaction volume in each well was 100 μL. The substrate and enzyme concentrations used ranged from 3.90 μM to 150 μM and 40 μM, respectively.\n(§5) The increase in relative fluorescence units was monitored for 20-30 minutes, and only the linear parts of the curves were used to determine the rate of the reaction. The kcat and Km values were calculated using GraphPad Prism software. All measurements were repeated three times using the appropriate concentration of the enzyme, and the data presented are averages of these repetitions."}, "MALT1^FL [2]": {"molecular_target": "T2, MALT1^FL (Homo sapiens, UniProt Q9UDY8)", "T2 construct": "treating full-length MALT1 (MALT1^FL), the MALT1 catalytic domain (MALT1^CD)", "T2 sequence (Q9UDY8 1-824)": "T1 sequence (Q9UDY8 1-824)", "assay": "Kinetic assay of IQF substrates, full-length enzyme", "details": "IQF substrate, ACC/Lys(Dnp) pair; 37 °C, assay buffer pH 7.5; 355/460 nm; average of three", "procedure": "as §1, §2, §3, §4, §5"}, "MALT1^CD [3]": {"molecular_target": "T3, MALT1^CD (Homo sapiens, UniProt Q9UDY8)", "T3 construct": "the MALT1 catalytic domain (MALT1^CD)", "T3 sequence (Q9UDY8 348-562 limits assumed)": "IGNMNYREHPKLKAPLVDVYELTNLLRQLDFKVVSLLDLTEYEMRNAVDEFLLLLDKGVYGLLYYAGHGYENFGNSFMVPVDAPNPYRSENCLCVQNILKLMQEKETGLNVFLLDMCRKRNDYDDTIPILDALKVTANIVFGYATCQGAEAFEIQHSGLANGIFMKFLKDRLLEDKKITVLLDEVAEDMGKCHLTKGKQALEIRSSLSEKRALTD", "assay": "Kinetic assay of IQF substrates, catalytic domain", "details": "IQF substrate, ACC/Lys(Dnp) pair; 37 °C, assay buffer pH 7.5; 355/460 nm; average of three", "procedure": "as §1, §2, §3, §4, §5"}, "MALT1 [4]": {"molecular_target": "T1, MALT1", "assay": "Inhibition kinetics of activity-based probe (kobs/I)"}, "MALT1^FL [5]": {"molecular_target": "T2, MALT1^FL", "assay": "MALT1 labeling with PKG105, SDS-PAGE fluorescence scan", "details": "100 nM enzyme; probe 500, 250, 125 nM; 30 minutes, 37 °C; gel scan 700 nm", "procedure": "(§6) MALT1^FL, MALT1^CD or MALT1^C/A at 100 nM were incubated with PKG105 at three different concentrations: 500 nM, 250 nM and 125 nM for 30 minutes at 37 °C. As a control, MALT1^FL without the probe was incubated in the assay buffer. Samples were denatured in 3 × SDS-loading buffer for 5 minutes at 95 °C. SDS-PAGE was performed under reducing conditions for 37 minutes at 165 V. The fluorescence signal in the gel was measured using a Li-Cor (Odyssey®) instrument at a wavelength of 700 nm."}, "MALT1^CD [6]": {"molecular_target": "T3, MALT1^CD", "assay": "MALT1 labeling with PKG105, SDS-PAGE fluorescence scan", "details": "100 nM enzyme; probe 500, 250, 125 nM; 30 minutes, 37 °C; gel scan 700 nm", "procedure": "as §6"}, "MALT1^C/A": {"test_system": "MALT1^C/A", "assay": "MALT1 labeling with PKG105, SDS-PAGE fluorescence scan", "details": "100 nM enzyme; probe 500, 250, 125 nM; 30 minutes, 37 °C; gel scan 700 nm", "procedure": "as §6"}, "[7]": {"test_system": "MALT1 in RAW 264.7 cell lysates", "assay": "Labeling of active MALT1 in RAW 264.7 cell lysates", "details": "RAW 264.7 lysates; probe 8 to 500 nM; 30 minutes, 37 °C; gel scan 700 nm", "procedure": "Figure 3 Probe to detect active MALT1. Panel a. Structure of the MALT1 probe (PKG105). Panel b. RAW 264.7 cell lysates were incubated with PKG105 at various concentrations. As a control, lysates were pretreated with mepazine, followed by incubation with probe. Lysates that were not treated with mepazine were also used. SDS-PAGE was performed at 165 V. Fluorescence was scanned using the 700 nm channel (LI-COR). Gels are representative of at least two replicates. TEXT PRINTED IN THE PICTURE: (a) PKG105: kobs/I = 92,000 M^-1s^-1\nTwenty-five microliters of RAW 264.7 cell lysates (from 5 * 10^6 cells/mL) were incubated with PKG105 at concentrations ranging from 8 to 500 nM. As controls, cells that were not incubated with probe or cells that were pretreated with 1 µL of 10 mM mepazine were treated with 500 nM PKG105. The lysates were incubated with the probe for 30 minutes at 37 °C, followed by denaturation in 3 × SDS-loading buffer for 5 minutes at 95 °C. SDS-PAGE was performed under reducing conditions for 37 minutes at 165 V. The fluorescence signal in the gel was measured using a Li-Cor (Odyssey®) at a wavelength of 700 nm."}}, "note": "Where two headings read alike, the source gives them in different places. Non-standard residues stand in square brackets, D forms with d. *: point of attachment. ACC = NC(=O)Cc1cc(=O)oc2cc(N*)ccc12", "data": [{"substance": "Ac-RLVSR-{ACC} (SMILES CC(=O)N[C@@H](CCCNC(=N)N)C(=O)N[C@@H](CC(C)C)C(=O)N[C@H](C(=O)N[C@@H](CO)C(=O)N[C@@H](CCCNC(=N)N)C(=O)Nc1ccc2c(CC(N)=O)cc(=O)oc2c1)C(C)C) [Ac-Arg-LVSR-ACC]", "values": [{"measurement": "Km", "setting": "MALT1 [1]", "value": "19.06 ± 0.05", "unit": "µM"}, {"measurement": "kcat", "setting": "MALT1 [1]", "value": "0.12 ± 0.0003", "unit": "s⁻¹"}]}, {"substance": "H2N-ACC-Ahx-A-L-V-S-R–G-Abu-K(Dnp)G-OH [Substrate M2]", "values": [{"measurement": "kcat/Km, MALT1^FL", "setting": "MALT1^FL [2]", "value": "5.5 * 10^3 ± 291 M^−1s^−1"}, {"measurement": "kcat/Km, MALT1^CD", "setting": "MALT1^CD [3]", "value": "2.6 * 10^3 ± 38 M^−1s^−1"}]}, {"substance": "Ac-TLVSR-{ACC} (SMILES CC(=O)N[C@H](C(=O)N[C@@H](CC(C)C)C(=O)N[C@H](C(=O)N[C@@H](CO)C(=O)N[C@@H](CCCNC(=N)N)C(=O)Nc1ccc2c(CC(N)=O)cc(=O)oc2c1)C(C)C)[C@@H](C)O) [Ac-Thr-LVSR-ACC]", "values": [{"measurement": "Km", "setting": "MALT1 [1]", "value": "22.4 ± 9.94", "unit": "µM"}, {"measurement": "kcat", "setting": "MALT1 [1]", "value": "0.12 ± 0.0050", "unit": "s⁻¹"}]}, {"substance": "Cy5-Phe(guan)-Leu-Val-Pro-Arg-AOMK [PKG105]", "values": [{"measurement": "kobs/I", "setting": "MALT1 [4]", "value": "92,000 s^−1M^−1"}, {"measurement": "kobs/I", "setting": "MALT1 [4]; printed in Figure 3a", "value": "92,000 M^-1s^-1"}, {"measurement": "kobs/I relative to the best MALT1 inhibitor in the literature", "setting": "MALT1 [4]; times higher than 9,300 s^−1M^−1", "value": "approximately 10 times"}, {"measurement": "labeling of MALT1^FL by probe", "setting": "MALT1^FL [5]", "value": "detected enzyme activity"}, {"measurement": "labeling of MALT1^CD by probe", "setting": "MALT1^CD [6]", "value": "detected enzyme activity"}, {"measurement": "labeling of MALT1^C/A catalytic mutant by probe", "setting": "MALT1^C/A", "value": "no labeling was observed"}, {"measurement": "detection of active MALT1 in cell lysates by probe", "setting": "[7]", "value": "detected active MALT1"}]}, {"substance": "Ac-[dA]LVSR-{ACC} (SMILES CC(=O)N[C@H](C)C(=O)N[C@@H](CC(C)C)C(=O)N[C@H](C(=O)N[C@@H](CO)C(=O)N[C@@H](CCCNC(=N)N)C(=O)Nc1ccc2c(CC(N)=O)cc(=O)oc2c1)C(C)C) [Ac-D-Ala-LVSR-ACC]", "values": [{"measurement": "Km", "setting": "MALT1 [1]", "value": "24.4 ± 6.97", "unit": "µM"}, {"measurement": "kcat", "setting": "MALT1 [1]", "value": "0.076 ± 0.034", "unit": "s⁻¹"}]}, {"substance": "Ac-[dV]LVSR-{ACC} (SMILES CC(=O)N[C@@H](C(=O)N[C@@H](CC(C)C)C(=O)N[C@H](C(=O)N[C@@H](CO)C(=O)N[C@@H](CCCNC(=N)N)C(=O)Nc1ccc2c(CC(N)=O)cc(=O)oc2c1)C(C)C)C(C)C) [Ac-D-Val-LVSR-ACC]", "values": [{"measurement": "Km", "setting": "MALT1 [1]", "value": "19.2 ± 2.5", "unit": "µM"}, {"measurement": "kcat", "setting": "MALT1 [1]", "value": "0.15 ± 0.012", "unit": "s⁻¹"}]}, {"substance": "H2N-ACC-Ahx-A-L-V-S-R–G-Thr-K(Dnp)G-OH [Substrate M3]", "values": [{"measurement": "kcat/Km, MALT1^FL", "setting": "MALT1^FL [2]", "value": "6.3 * 10^3 ± 311 M^−1s^−1"}, {"measurement": "kcat/Km, MALT1^CD", "setting": "MALT1^CD [3]", "value": "2.8 * 10^3 ± 101 M^−1s^−1"}]}]}
